Measured values from paper PMC9917830, “New Piperazine Derivatives of 6-Acetyl-7-hydroxy-4-methylcoumarin as 5-HT1A Receptor Agents” (International Journal of Molecular Sciences, 2023).
Like-named read-outs stand apart in the source and are kept apart here.

Legend:
5-HT1A receptor [1] = biological target: T1, 5-HT1A receptor (Rattus norvegicus, UniProt P19327); experiment: Competitive 5-HT1A binding assay with [3H]8-OH-DPAT, rat hippocampal membranes; conditions: 1 nM [3H]8-OH-DPAT
T1 construct: Brains were rapidly removed and placed on ice; from tissue; host or cells: Sprague–Dawley rat hippocampus membranes
T1 sequence (P19327 1-422): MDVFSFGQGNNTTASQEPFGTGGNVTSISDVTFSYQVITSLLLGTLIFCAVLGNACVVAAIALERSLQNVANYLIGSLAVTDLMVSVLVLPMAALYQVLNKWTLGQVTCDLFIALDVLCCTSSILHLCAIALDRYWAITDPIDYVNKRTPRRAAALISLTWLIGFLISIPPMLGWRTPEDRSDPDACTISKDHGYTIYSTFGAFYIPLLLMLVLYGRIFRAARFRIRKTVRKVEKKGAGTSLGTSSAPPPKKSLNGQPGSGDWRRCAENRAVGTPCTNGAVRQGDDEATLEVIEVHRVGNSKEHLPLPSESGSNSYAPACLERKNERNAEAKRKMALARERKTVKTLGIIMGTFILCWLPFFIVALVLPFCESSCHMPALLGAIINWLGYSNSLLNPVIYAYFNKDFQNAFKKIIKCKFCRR
Method: (§1) Sprague–Dawley rats were sacrificed by isoflurane overdose. Brains were rapidly removed and placed on ice. Hippocampi (for 5-HT1A assays) and frontal cortices (for 5-HT2A assays) were dissected on a Petri dish. The tissue from 10 rats was homogenized in 30 vol. homogenization buffer (50 mM Tris-HCl, […], 1 mM EDTA, 1 mM dithiothreitol) with a hand-held Teflon-glass homogenizer. The homogenate was centrifuged at 48,000× g at 4 °C for 15 min. The pellet was suspended and homogenized in homogenization buffer and incubated for 10 min at 36 °C. The centrifugation and suspension steps were repeated twice. The final pellet was homogenized in 5 vol. 50 mM Tris-HCl, pH = 7.4 buffer and stored at −80 °C for not more than 6 months.
(§2) Non-specific binding was determined with 10 μM serotonin in both assays. The final DMSO concentration in the assay was 5%. After incubation, the reaction mixture was deposited with the FilterMate-96 Harvester (Perkin Elmer, Waltham, MA, USA) onto Unifilter® GF/C plates (Perkin Elmer, Waltham, MA, USA) presoaked in 0.4% PEI for 1h. Each well was washed with 2 mL of 50 mM Tris-HCl (pH 7.4) buffer to separate bound ligands from free ones. Plates were left to dry overnight. Then, 35 µL of Microscint-20 scintillation fluid (Perkin Elmer, Waltham, MA, USA) was added to each filter well and left to equilibrate for 2 h. Filter-bound radioactivity was counted in a MicroBeta^2 LumiJet scintillation counter (Perkin Elmer, Waltham, MA, USA). Binding curves were fitted with one-site non-linear regression. Binding affinity (pKi ± SEM and Ki ± 95% confidence intervals) for each compound was calculated from […] values with the Cheng-Prusoff equation from two separate experiments.

5-HT2A receptor = biological target: T2, 5-HT2A receptor (Rattus norvegicus, UniProt P14842); experiment: Competitive 5-HT2A binding assay with [3H]ketanserin, rat frontal cortex membranes; conditions: 1 nM [3H]ketanserin
T2 construct: Brains were rapidly removed and placed on ice; from tissue; host or cells: Sprague–Dawley rat frontal cortex membranes
T2 sequence (P14842 whole entry): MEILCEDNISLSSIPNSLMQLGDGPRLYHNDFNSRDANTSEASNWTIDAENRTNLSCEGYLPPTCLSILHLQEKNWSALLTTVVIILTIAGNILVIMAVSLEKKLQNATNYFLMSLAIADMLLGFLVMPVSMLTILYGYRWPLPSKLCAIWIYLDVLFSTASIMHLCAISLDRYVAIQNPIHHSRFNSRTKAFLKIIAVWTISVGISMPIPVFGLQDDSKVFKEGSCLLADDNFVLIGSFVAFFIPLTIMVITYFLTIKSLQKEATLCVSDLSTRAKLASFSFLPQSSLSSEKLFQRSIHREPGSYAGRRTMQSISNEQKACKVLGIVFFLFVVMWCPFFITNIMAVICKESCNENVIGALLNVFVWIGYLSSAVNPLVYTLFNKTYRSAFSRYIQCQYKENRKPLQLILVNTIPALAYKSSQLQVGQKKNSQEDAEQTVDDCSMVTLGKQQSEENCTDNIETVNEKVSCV
Method: as §1, §2

5-HT1A receptor [2] = biological target: T1, 5-HT1A receptor; experiment: 5-HT1A receptor activation in the [35S]GTP-γ-S assay (agonist and antagonist mode); format: biochemical; conditions: for IC50: read-out: 5-HT1A Receptor Inhibition IC50 (nM, 95% CI); for agonist or antagonist properties at the 5-HT1A receptor: result in words; for Emax / EC50: agonist mode; for Emax: efficacy ± SEM; for EC50: rat hippocampal membranes
Method: as §1, with “The pellet was suspended and homogenized in homogenization buffer and incubated for 10 min at 36 °C.” left out
Non-specific binding was determined with 100 µM of unlabeled GTPγS. The compounds were tested in both the agonist and antagonist mode. […] The final DMSO concentration in the assay was 5%. The reaction mixture was incubated for 90 min at 30 °C on an orbital shaker set at 250 rpm. The reaction mixture was then deposited under vacuum with the FilterMate Harvester® (Perkin Elmer, Waltham, MA, USA) onto Unifilter® GF/C Plates (Perkin Elmer, Waltham, MA, USA) presoaked with wash buffer (50 mM Tris-HCl, pH = 7.4). The wells were then rapidly washed with 2 mL of wash buffer. The filter plates were dried overnight at room temperature. Once completely dry, 35 µL of MicroScint PS (Perkin Elmer, Waltham, MA, USA) scintillation fluid was added to each well. Radioactivity was counted in a MicroBeta^2 LumiJet scintillation counter (Perkin Elmer, Waltham, MA, USA). […] The curves were fitted with the three-parameter non-linear regression model.

[3] = 95% CI in brackets, read-out: 5-HT1A Affinity Ki (nM, 95% CI)
[4] = 95% CI in brackets, read-out: 5-HT2A Affinity Ki (nM, 95% CI)
[5] = ± SEM, read-out: 5-HT2A Affinity pKi (converted)
[6] = 95% CI in brackets, read-out: 5-HT1A Receptor Stimulation EC50 (nM, 95% CI)
[7] = ± SEM, two experiments, read-out: 5-HT1A Affinity pKi (nM ± SEM) (converted)

SMILES	Ki (5-HT1A receptor [1]; [3]) [nM]	Ki (5-HT2A receptor; [4]) [nM]	IC50 (5-HT1A receptor [2]) [nM]	agonist or antagonist properties at the 5-HT1A receptor (5-HT1A receptor [2])	melting point [°C]	Ki (5-HT2A receptor; [5]) [nM]	Emax (5-HT1A receptor [2]) [%]	EC50 (5-HT1A receptor [2]; [6]) [nM]	Ki (5-HT1A receptor [1]; [7]) [nM]	EC50 (5-HT1A receptor [2]; read-out: 5-HT1A Receptor Stimulation pEC50 (nM ± SEM) (converted)) [nM]
COc1ccccc1N1CCN(CCCCOc2cc3oc(=O)cc(C)c3cc2C(C)=O)CC1 [Compound 1, 6-Acetyl-7-{4-[4-(2-methoxyphenyl)piperazin-1-yl]butoxy}-4-methylchromen-2-one]	5.75	1420	301	antagonistic properties	126 to 127					
COc1cccc(N2CCN(CCCCOc3cc4oc(=O)cc(C)c4cc3C(C)=O)CC2)c1 [Compound 2, 6-Acetyl-7-{4-[4-(3-methoxyphenyl)piperazin-1-yl]butoxy}-4-methylchromen-2-one]	12.9	1160		agonistic activity		1170	146 ± 1.1	181		
CC(=O)c1cc2c(C)cc(=O)oc2cc1OCCCCN1CCN(c2ccccc2Br)CC1 [Compound 3, 6-Acetyl-7-{4-[4-(2-bromophenyl)piperazin-1-yl]butoxy}-4-methylchromen-2-one]	1.96	1020	5180	antagonistic properties	121 to 122					
CC(=O)c1cc2c(C)cc(=O)oc2cc1OCCCCN1CCN(c2cccc(Br)c2)CC1 [Compound 4, 6-Acetyl-7-{4-[4-(3-bromophenyl)piperazin-1-yl]butoxy}-4-methylchromen-2-one]	0.78	1160		agonistic profile	109 to 110		176 ± 1.2	113	0.759	
CC(=O)c1cc2c(C)cc(=O)oc2cc1OCCCCN1CCN(c2ccc(Br)cc2)CC1 [Compound 5, 6-Acetyl-7-{4-[4-(4-bromophenyl)piperazin-1-yl]butoxy}-4-methylchromen-2-one]	1.4	1350	63200	antagonistic properties	145 to 146					
CC(=O)c1cc2c(C)cc(=O)oc2cc1OCCCCN1CCN(c2ccccc2F)CC1 [Compound 6, 6-Acetyl-7-{4-[4-(2-fluorophenyl)piperazin-1-yl]butoxy}-4-methylchromen-2-one]	1.04	1470			112 to 113		139 ± 1.1	101	1.07	102
CC(=O)c1cc2c(C)cc(=O)oc2cc1OCCCCN1CCN(c2ccccc2Cl)CC1 [Compound 7, 6-Acetyl-7-{4-[4-(2-chlorophenyl)piperazin-1-yl]butoxy}-4-methylchromen-2-one]	0.57	2080		strongest agonist	132 to 133		130 ± 1.4	49	0.55	
CC(=O)c1cc2c(C)cc(=O)oc2cc1OCCCCN1CCN(c2ccccc2C#N)CC1 [Compound 8, 6-Acetyl-7-{4-[4-(2-cyanophenyl)piperazin-1-yl]butoxy}-4-methylchromen-2-one]	9.44	705			117 to 118		124 ± 1.1	59		
CC(=O)c1cc2c(C)cc(=O)oc2cc1OCCCCN1CCN(c2cccc(Cl)c2Cl)CC1 [Compound 9, 6-Acetyl-7-{4-[4-(2,3-dichlorophenyl)piperazin-1-yl]butoxy}-4-methylchromen-2-one]	6.3	1290			111 to 112	1230	133 ± 1.3	149		
CC(=O)c1cc2c(C)cc(=O)oc2cc1OCCCCN1CCN(c2cc(C)cc(C)c2)CC1 [Compound 10, 6-Acetyl-7-{4-[4-(3,5-dimethylphenyl)piperazin-1-yl]butoxy}-4-methylchromen-2-one]	22.4				101 to 102	513	139 ± 1.4	475		
CC(=O)c1cc2c(C)cc(=O)oc2cc1OCCCCN1CCN(c2cc(C)ccc2C)CC1 [Compound 11, 6-Acetyl-7-{4-[4-(2,5-dimethylphenyl)piperazin-1-yl]butoxy}-4-methylchromen-2-one]	174	3710	21900		130 to 131	3980				
CC(=O)c1cc2c(C)cc(=O)oc2cc1OCCCCN1CCN(c2ccc([N+](=O)[O-])cc2)CC1 [Compound 12, 6-Acetyl-7-{4-[4-(4-nitrophenyl)piperazin-1-yl]butoxy}-4-methylchromen-2-one]	1800	1500	53400		138 to 139	1550			1780	
CC(=O)c1cc2c(C)cc(=O)oc2cc1OCCCCN1CCOCC1 [Compound 13, 6-Acetyl-7-[4-(morpholin-4-yl)butoxy]-4-methylchromen-2-one]	9620	6390	93400		115 to 116					
CC(=O)c1cc2c(C)cc(=O)oc2cc1OCCCCN1CCN(c2ccncc2)CC1 [Compound 14]	1660	3360	25000		107 to 108					
CC(=O)c1cc2c(C)cc(=O)oc2cc1OCCCCN1CCN(c2cnccn2)CC1 [Compound 15, 6-Acetyl-7-{4-[4-(pyrazin-2-yl)piperazin-1-yl]butoxy}-4-methylchromen-2-one]	25	6600		agonistic profile	150 to 151		170 ± 1.3	1300		
